Experimental data: patent publication US20250134907A1, “FUSED DIAZEPINES AS AGONISTS OF THE INSULIN-LIKE 3 (INSL3) PEPTIDE RECEPTOR RXFP2 AND METHODS OF USE THEREOF” (The United States of America,as represented by the …, priority 2022, published 2025)

Experiments:
[1] = system: primary human calvarial osteoblasts (HCO); experiment: CellTiter-Glo cytotoxicity assay in HCO cells; assay type: cell-based; details: 24 h
Procedure: (§1) Cytotoxicity induced by the compounds in HEK293T cells and primary human calvarial osteoblasts (HCO) (ScienCell Research Laboratories, San Diego, CA) were tested using the […]-GLO™ Luminescent Cell Viability Assay (Promega, Madison, WI). This is a luminescence-based assay that determines viable cells by measuring cellular adenosine triphosphate (ATP) production. The luciferase enzyme requires ATP to catalyze the conversion of beetle luciferin to oxyluciferin and light. Thus, luciferase activity is proportional to ATP accumulation in the cells. For this assay, 96-well flat-bottom opaque plates seeded with HEK293T cells at 5,000 cells/well and HCO cells at 3,000 cells/well in 100 μL/well of growth medium (DMEM, 10% FBS, 1× Penicillin/Streptomycin). After incubating overnight at 37° C., 5% CO2 to allow attachment, cells were treated with 1 μL/well of compound (25-0.1 μM) or DMSO vehicle and incubated an additional 24 hours. Then cells were equilibrated for 30 minutes at room temperature and 100 μL/well of […]-GLO™ Reagent was added. Plates were placed on an orbital shaker for 2 minutes and incubated at room temperature for 10 minutes to stabilize the luminescent signal, which was read immediately after on a CLARIOstar plate reader (BMG Labtech, Germany). […] The HEK293T results represent the means±SEM of 3 technical replicates. The HCO results represent the means±SEM of 3 independent experiments.

[2] = system: gubernaculum of female embryos; experiment: Gubernaculum development in female embryos of treated pregnant mice; assay type: in vivo, C57BL/6J mice; details: 30 mg/kg intraperitoneal to pregnant females, embryonic day 12.5 to 17.5
Excerpt: The role of INSL3 and RXFP2 in gubernaculum development for the initial transabdominal descent of the testis during embryogenesis has been widely characterized in Insl3^-/- and Rxfp2^-/- mouse models of cryptorchidism. […] The gubernaculum is composed of the gubernacular bulb and cord, and it has begun invagination into the abdominal wall in preparation for the inguinoscrotal stage of testicular descent, which will finalize after birth. […] The hypothesis for our experiment is that by injecting pregnant females with the RXFP2 agonists during this embryonic development window, gubemaculum development could be induced in female embryos, which has been previously shown in female embryos overexpressing INSL3. […] For this assay, whole embryos were fixed in 10% formaldehyde for 24 hours. Afterwards, embryos were washed twice with PBS for 1 hour, followed by 3 consecutive washes with increasing concentrations of ethanol (30%, 50% and 70%) for 30 minutes. Fixed embryos were prepared for histology using an automatic tissue processor (Leica TP1020, Leica Biosystems, Germany), embedded in paraffin wax, and 5-7 μm sagittal serial sections were cut using an automated rotary microtome (Leica RM2255, Leica Biosystems, Germany). […] At least 4 embryos were analyzed per treatment group.

HEK293T cells = experiment: CellTiter-Glo cytotoxicity assay in HEK293T cells; assay type: cell-based, human; details: 24 h, 25 μM and 8.3 μM
Procedure: as §1

Structure (SMILES): O=C1Nc2ccc(-c3cc(C(F)(F)F)cc(C(F)(F)F)c3)cc2C(=O)N2CCN(C(=O)COc3ccc(OC(F)(F)F)cc3Br)C[C@@H]12 [Example 158, (S)-8-(3,5-Bis(trifluoromethyl)phenyl)-2-(2-(2-bromo-4-(trifluoromethoxy)phenoxy)acetyl)-1,3,4,12a-tetrahydrobenzo[e]pyrazino[1,2-a][1,4]diazepine-6,12 (2H, 11H)-dione]
- cytotoxicity ([1]; 25 μM): minimal toxicity
- cytotoxicity ([1]; lower concentrations than 25 μM): not toxic
- gubernaculum morphology in embryonic day 18.5 female embryos [2]: male-like invagination of the gubemaculum
- cytotoxicity (HEK293T cells): some toxicity
